Data: patent publication US11273193B2, “Synergistic composition as a promoter of autophagy” (GIULIANI S.P.A., priority 2017, dated 2022)
Entries after “also recorded” stand apart in the source; their conditions may differ.

Legend:
Type in all cases: cell-based, human
[1] = system: LC3; assay: Live fluorescent microscopy of LC3-RFP dots (autophagosome accumulation) in U2OS cells; settings: U2OS cells transduced with LC3-RFP, 6 h; biotin 200 ng/ml, Galeopsis dry extract 100 ng/ml, spermidine 10 μM; FIG. 1
Text: In order to evaluate whether biotin and/or Galeopsis segetum extract may affect autophagy, the inventors monitored the accumulation of autophagosome in cultured U2OS cells by live fluorescent microscopy (Klionsky D J, Abdelmohsen K, Abe A, Abedin M J, Abeliovich H, Acevedo Arozena A, et al. Guidelines for the use and interpretation of assays for monitoring autophagy. Autophagy. 2016; 12(1):1-222). Thus, cells were trasduced with construct containing the autophagy protein, LC3, fused with a Red Fluorescent Protein (RFP). Then, accumulation of fluorescent LC3 dots upon addition of biotin (200 ng/ml) or Galeopsis dry extract (100 ng/ml) was monitored by acquiring images every 30 min for 6 h. Spermidine (10 μM) was adopted as a positive control of an autophagy inducer compound (Pietrocola F, Lachkar S, Enot D, Niso-Santano M, Bravo-San Pedro J, Sica V, et al. Spermidine induces autophagy by inhibiting the acetyltransferase EP300. Cell Death & Differentiation. 2015; 22(3):509-16).
Both biotin and Galeopsis segetum dry extract produced a similar accumulation of LC3-red dots.

[2] = system: SQSTM1/p62; assay: Live fluorescent microscopy of p62-RFP dots (autophagy-mediated p62 degradation) in U2OS cells; settings: U2OS cells transduced with p62-RFP; FIG. 2
Description: U2OS cells were seeded 3000 cells/well in 48-well plates, No. 1.5 Uncoated Coverslip, 6 mm glass diameter, previously coated with gelatin solution, and transduced with 0.2 ul di baculovirus/10 000 cells containing a chimeric protein p62-Red Fluorescent Protein (p62-RFP). At 48 h post-transduction the cells were treated with Spermidine, Biotin, Galeopsis, or vehicle and monitored for 24 h using NIKON Live Cell Imaging microscopy.
Because LC3-RFP dots may also accumulate upon a blockade of the autophagic flux, the autophagy-dependent degradation of the SQSTM1/p62 protein (Klionsky D J, Abdelmohsen K, Abe A, Abedin M J, Abeliovich H, Acevedo Arozena A, et al. Guidelines for the use and interpretation of assays for monitoring autophagy. Autophagy. 2016; 12(1):1-222) was thus monitored. p62 served as a link between LC3 and ubiquitinated substrates (Pankiv S, Clausen T H, Lamark T, Brech A, Bruun J-A, Outzen H, et al. p62/SQSTM1 binds directly to Atg8/LC3 to facilitate degradation of ubiquitinated protein aggregates by autophagy. Journal of Biological Chemistry. […]
Accordingly, the effects of biotin and Galeopsis on autophagy-mediated p62 degradation was evaluated analyzing the number of p62-RFP autophagosomes by live fluorescent microscopy. […] Then, p62 fluorescent dots were monitored upon addition of biotin, Galeopsis, spermidine or vehicle.

[3] = system: p62/SQSTM1; assay: Immunoblot analysis of p62 protein levels in U2OS cells; settings: immunoblot normalized to GAPDH, spermidine 0.5 μM, biotin 19.91 ng/ml, Galeopsis 7.9 ng/ml
Description: U2OS cells were grown to 80% confluence in Dulbecco Modified Eagle's Medium High Glucose (4.5 g/ID-Glucose) containing 4 mM L-glutamine, 10% fetal bovine serum (FBS) and treated with Spermidine (Lot. 2010112716), Galeopsis segetum (IDN 6781), Biotin (Lot. 2014124160) or their combinations. Protein samples were extracted in RIPA buffer as previously reported (De Mei C, Ercolani L, Parodi C, Veronesi M, Vecchio C L, Bottegoni G, et al. Dual inhibition of REV-ERBβ and autophagy as a novel pharmacological approach to induce cytotoxicity in cancer cells. Oncogene. 2015; 34(20):2597-608). p62/SQSTM1 and GAPDH levels were analyzed with anti-p62/SQSTM1 and anti-GADPH specific antibodies. Immunoblot experiments were performed in TBS-T buffer containing 5% bovine serum albumin (BSA). […] and anti-GAPDH antibodies were diluted 1:1000 and 1:50000, respectively. Complementary HPR-conjugated secondary antibodies were diluted 1:10000. Upon reaction with ECL Western blotting detection reagent, chemiluminescent signals were acquired with a LAS-4000 luminescent image analyzer and optical density of specific band signal was calculated with Photoshop image analysis software. GAPDH was adopted as a loading control and GAPDH signals were used to normalize p62 protein levels among different samples.
Immunoblots were repeated at least 4 times in order to express value as mean±SEM. […]

[4] = system: lipidated LC3 (LC3-II); assay: Immunoblot of lipidated LC3 (LC3-II) in U2OS cells, Example 14; settings: 100 μM, 6 h, normalized by ACTIN, FIG. 3
Description: (§1) The levels of lipidated LC3 and SQSTM1 in human U2OS cells treated with equimolar doses of N1-methylspermidine and spermidine were evaluated. […] Specifically cultured human U2OS cells were treated 6 h with vehicle or equimolar doses of spermidine and N^1-methylspermidine (100 μM). The levels of lipidated LC3 (LC3-II) and SQSTM1 were then assessed by immunoblotting analysis as in example 8 with specific antibody. Actin signals were adopted as a loading control. Densitometry analysis of protein signals is reported as relative protein levels normalized by ACTIN. Vehicle sample value was set to 1. Shown as mean±SEM., n=3. *P<0.05 and **P<0.01, compounds versus vehicle.

[5] = system: SQSTM1; assay: Immunoblot of SQSTM1 in U2OS cells, Example 14; settings: 100 μM, 6 h, normalized by ACTIN, FIG. 3
Description: as §1

SMILES	accumulation of fluorescent LC3 dots (autophagosomes) [1]	reduction of p62-RFP fluorescent dots / signals versus vehicle [2]	Percentage of p62 reduction versus vehicle (% ± SEM) [3] [%]	levels of the lipidated LC3-II form compared with vehicle [4]	autophagy-mediated degradation of SQSTM1 compared with vehicle [5]
O=C(O)CCCC[C@@H]1SC[C@@H]2NC(=O)N[C@@H]21 [Biotin, 5-[(3aS,4S,6aR)-2-oxohexahydro-1H-thieno[3,4-d]imidazole-4-yl]pentanoic acid]	marked accumulation of fluorescent LC3 dots	drastic reduction of p62-RFP dots; also recorded: strong reduction of p62 fluorescent signals	21 ± 1.5		
CNCCCNCCCCN [N1-methylspermidine]				increased the levels of the lipidated LC3-II form	stimulated autophagy-mediated degradation of SQSTM1
NCCCCNCCCN [Spermidine, N′-(3-aminopropyl)butane-1,4-diamine]	marked accumulation of LC3 fluorescent dots	markedly reduced p62 fluorescent dots and fluorescent signals	5 ± 0.11	increased the levels of the lipidated LC3-II form	stimulated autophagy-mediated degradation of SQSTM1
